Here are results for ten compounds from EP2698385A1, “Detection of synthetic cannabinoids” (priority 2012, dated 2014).

One assay has as its system Antibody to Immunogen I. It counts as binding, sheep. The gist of the method: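 Sheep anti-Immunogen I IgG coated on plates, then JWH-018 standards (0–40 ng/ml) competed with hapten-HRP conjugate for 1 h at 25°C. TMB read-out at 450 nm, 4-parameter fit. IC50 is the standard concentration giving 50% B/B0; cross-reactivity of related cannabinoids taken from the calibration curves.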

For assay [1], the system named is antibodies raised to Immunogens I & II. Put plainly: Competitive ELISA (Example 19), sensitivity and cross-reactivity of selected molecules, one result for both antibodies. Format: binding, sheep. The settings on record: result in words. How it is done: Aqueous solutions of the immunogens prepared in examples 5 and 13 were formulated with Freund's Complete Adjuvant (FCA) to form emulsions consisting of 2mg/ml Immunogen I and 2mg/ml of Immunogen II in 50%(v/v) FCA. Three sheep were immunised with each emulsion (1° immunisations), 0.25ml being intramuscularly injected at four sites in the rump of each animal. Subsequent immunisations (boosts 2-8) contained 1mg/ml Immunogen I and 1mg/ml Immunogen II. All boosts were emulsified in 50%(v/v) Freund's Incomplete Adjuvant (FIA) and administered to the appropriate sheep in the same manner as the 1° immunisations, at monthly intervals. Blood sampling took place 7-14 days after each boost. Each sample was processed to produce antiserum, which was further purified by caprylic acid and ammonium sulphate precipitation to yield an immunoglobulin (Ig) fraction. The Ig fraction was evaluated by competitive ELISA microtiter plate assay, as described in example 19 below.
Example 19: Development of competitive ELISA for JWH synthetic cannabinoids and metabolites. • (a) The wells of an enhanced binding 96 well polystyrene microtiter plate were coated with the Ig fraction of the antiserum raised to Immunogen I (Hapten A-BTG - example 5) and diluted in 10mM Tris, pH8.5 (125µl/well). The appropriate antibody coating concentration was determined using standard ELISA checkerboard techniques. The plate was incubated for 2 hours at 37°C, washed 4 times over a 10-minute period with Tris buffered saline containing Tween 20 (TBST) and tapped dry. Standard solutions of JWH synthetic cannabinoids, metabolites and selected molecules were prepared in TBST and 50µl of each was added to the appropriate wells. 75µl of conjugate (Hapten A-HRP) diluted in Tris buffer containing EDTA, D-mannitol, sucrose, thimerosal and BSA, was added to each of the wells. The appropriate dilution of conjugate was also determined using standard ELISA checkerboard techniques. The plate was incubated at 25°C for 1 hour. The excess unbound conjugate was removed by washing 6 times over a 10-minute period with TBST and tapped dry. 125µl of tetramethylbenzedine (TMB) substrate solution was added to each well of the plate that was then incubated for 15-20 minutes in the dark at room temperature. The reaction was terminated by addition of 125µl of 0.2M sulphuric acid to each well. The absorbance was then measured at 450nm using a microtiter plate reader. Employing each series of standards, calibration curves were generated and these were used to determine the specificity of the immunoassay for the JWH synthetic cannabinoids, metabolites and selected molecules. The results of this study are presented in Tables 1 to 3, cross-reactivity being calculated according to the following formula: %CR = […] /IC50,CR X 100 [formula] Where %CR is the percentage cross-reactivity, IC50, YWH-018 is the concentration of JWH-018 that causes 50% displacement of signal and IC50, CR is the concentration of JWH synthetic cannabinoid/metabolite/selected molecule that causes 50% displacement of signal.
Table 2: Data generated from a competitive microtiter plate assay for JWH synthetic cannabinoids and metabolites, employing antiserum raised to Immunogen I (Hapten A-BTG) and conjugate (Hapten A-HRP) as detection reagent. • (c) The resulting competitive ELISA for synthetic cannabinoids and metabolites was further employed to analyse urine and serum samples from 20 patients (Table 3). • (d) The resulting competitive ELISA for synthetic cannabinoids and metabolites was also employed to test for the 5-fluoropentyl derivative of JWH-018, (1-(5-fluoropentyl)indol-3yl (1-naphthyl) methanone (Table 4).

Where [2] appears, read: Cross-reactants at 100 ng/ml, Antibody to Immunogen I.

Each structure is given as a SMILES string. Where two headings read alike, the source gives them in different places.

As to `O=C(c1cccc2ccccc12)c1c[nH]c2ccccc12` [3-(1-naphthoyl)-1H-Indole, 3-(1-naphthoyl)-1H-indole], the “%B/B0” value in the assay on Antibody to Immunogen I (setting [2]) is 15.63%.
In the case of `CCCCCn1cc(C(=O)c2cccc3ccccc23)c2c(O)cccc21` [JWH-018 4-hydroxyindole metabolite], the “%B/B0” value with Antibody to Immunogen I (setting [2]) was determined as 46.39%.
Take `CCCCCn1cc(C(=O)c2cccc3ccccc23)c2cc(O)ccc21` [JWH-018 5-hydroxyindole metabolite]: the “%B/B0” value in the assay on Antibody to Immunogen I (setting [2]) came out at 11.79%.
Turning to `CCCCCn1cc(C(=O)c2cccc3ccccc23)c2ccc(O)cc21` [JWH-018 6-hydroxyindole metabolite], the “%B/B0” value with Antibody to Immunogen I (setting [2]) was determined as 8.07%.
As to `O=C(c1cccc2ccccc12)c1cn(CCCCCO)c2ccccc12` [JWH-018 N-(5-hydroxypentyl) metabolite], in the assay on Antibody to Immunogen I (setting [2]), the “%B/B0” value turned out to be 3.50%.
As for `O=C(O)CCCCn1cc(C(=O)c2cccc3ccccc23)c2ccccc21` [JWH-018 N-pentanoic acid metabolite], the “%B/B0” value in the assay on Antibody to Immunogen I (setting [2]) turned out to be 4.51%. Further, in assay [1], the “binding / cross-reaction with antibodies raised from Immunogens I and II” value is reported as “bind”.
For the compound `CCCCCn1cc(C(=O)c2cccc3ccccc23)c2ccccc21` [JWH-018], the “%B/B0” value in the assay with Antibody to Immunogen I (setting [2]) amounted to 5.19%; with Antibody to Immunogen I (JWH-018 standard 0.625 ng/ml) it was 77%; with Antibody to Immunogen I (JWH-018 standard 1.25 ng/ml) it was 62%; in the assay on Antibody to Immunogen I (JWH-018 standard 2.5 ng/ml) it was 44%; in the assay with Antibody to Immunogen I (JWH-018 standard 5 ng/ml), 31%; with Antibody to Immunogen I (JWH-018 standard 10 ng/ml) it was 20%. In addition, the “%B/B0” value in the assay with Antibody to Immunogen I (JWH-018 standard 20 ng/ml) was 14%; in the assay with Antibody to Immunogen I (JWH-018 standard 40 ng/ml) it was 9%. The concentration for half-maximal inhibition (IC50) – broadly, the concentration that inhibits the measured activity by half – in the assay on Antibody to Immunogen I (Table 3a standard curve, standard concentration which produces 50% B/B0) turned out to be 2.016 ng/mL.
In the case of `CCCCn1cc(C(=O)c2cccc3ccccc23)c2ccccc21` [JWH-073], in the assay on Antibody to Immunogen I (setting [2]), the “%B/B0” value was found to be 3.56%.
Take `CCCCCn1cc(C(=O)c2ccc(Cl)c3ccccc23)c2ccccc21` [JWH-398]: the “%B/B0” value with Antibody to Immunogen I (setting [2]) is on record as 60.31%. In assay [1], the “binding / cross-reaction with antibodies raised from Immunogens I and II” value was “bind”.
For the compound `O=C(c1cccc2ccccc12)c1cn(CCN2CCOCC2)c2ccccc12` [WIN 55,225 (other name JWH-200), JWH-200], in the assay with Antibody to Immunogen I (setting [2]), the “%B/B0” value was 3.51%.
